Assay results from patent US20240041042A1, “1-(PYRIDYL)-5-AZINYLPYRAZOLE DERIVATIVES, AND THEIR USE FOR CONTROL OF UNDESIRED PLANT GROWTH” (Bayer Aktiengesellschaft, priority 2020, published 2024).
Read-outs that look alike come from different tables or passages of the source. Blank lines part the entries; values can stand above or below the compound they belong to.

Experiments:
Type in all cases: in vivo
[1] = system: Zea mays (ZEAMX); details: for Post-emergence action against ZEAMX in %: crop plant compatibility, 80 g/ha, effect vs untreated controls
Method in brief: (§1)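 Greenhouse crops in sandy loam sprayed post-emergence at the one-leaf stage, 2–3 weeks after sowing, with WP or EC formulations in water plus 0.5% additive at 600 l/ha. Damage rated visually about 3 weeks later versus untreated controls (0% = like control, 100% = dead); suffixes a–c denote different doses.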

[2] = system: Oryza sativa (ORYSA); details: crop plant compatibility
Method in brief: as §1

[3] = system: Lolium rigidum (LOLRI); assay: Post-emergence herbicidal action against LOLRI
Method in brief: (§2)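 Rates were 320 g/ha or below, applied as aqueous WP/EC spray with 0.5% additive (600 l/ha) onto one-leaf-stage plants. About 3 weeks later in the greenhouse, damage was scored visually against untreated plants on a 0–100% scale, where 100% means plants died.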

[4] = system: Amaranthus retroflexus (AMARE); assay: Post-emergence herbicidal action against AMARE
Method in brief: as §2

[5] = system: Alopecurus myosuroides (ALOMY); assay: Post-emergence herbicidal action against ALOMY; details: visual rating about 3 weeks after treatment vs untreated controls (100% = plants have died, 0% = like control plants)
Method in brief: as §2

[6] = system: Abutilon theophrasti (ABUTH); assay: Post-emergence herbicidal action against ABUTH; details: visual rating about 3 weeks after treatment vs untreated controls (100% = plants have died, 0% = like control plants)
Method in brief: as §2

[7] = system: Verconica persica (VERPE); assay: Pre-emergence herbicidal action against VERPE
Method in brief: (§3)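 Greenhouse pot trial: seeds sown, soil-covered, sprayed before emergence with compound in water (0.5% additive; 600 l/ha; ≤320 g/ha). Scoring visual, ~3 weeks, 0–100% scale vs untreated.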

[8] = system: Alopecurus myosuroides (ALOMY); assay: Pre-emergence herbicidal action against ALOMY; details: scored visually after about 3 weeks, 100% = plants have died
Method in brief: as §3

[9] = system: Oryza sativa (ORYSA); details: pre-emergence, 80 g/ha, crop plant compatibility, in comparison to untreated controls
Method in brief: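 Scoring: visual, % of untreated control, about 3 weeks after a pre-emergence application to the soil surface. Application used WP or EC formulations diluted in water with 0.5% additive at 600 l/ha; dosage levels are marked by suffixes a, b and c.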

[10] = system: Setaria viridis (SETVI); assay: Post-emergence herbicidal action against SETVI; details: dosage 80 g/ha
Method in brief: as §2

[11] = system: Avena fatua (AVEFA); assay: Post-emergence herbicidal action against AVEFA; details: visual rating about 3 weeks after treatment
Method in brief: as §2

[12] = system: Viola tricolor (VIOTR); assay: Post-emergence herbicidal action against VIOTR
Method in brief: as §2

[13] = system: Echinochloa crus-galli (ECHCG); assay: Post-emergence herbicidal action against ECHCG
Method in brief: as §2

[14] = system: Pharbitis purpurea (PHBPU); assay: Pre-emergence herbicidal action against PHBPU; details: dosage 320 g/ha
Method in brief: as §3

[15] = system: Lolium rigidum (LOLRI); assay: Pre-emergence herbicidal action against LOLRI
Method in brief: as §3

[16] = system: Polygonum convolvulus (POLCO); assay: Pre-emergence herbicidal action against POLCO; details: dosage 320 g/ha
Method in brief: as §3

[17] = system: Avena fatua (AVEFA); assay: Pre-emergence herbicidal action against AVEFA; details: 320 g/ha, visual scoring after about 3 weeks vs untreated controls
Method in brief: as §3

[18] = system: Amaranthus retroflexus (AMARE); assay: Pre-emergence herbicidal action against AMARE; details: visual scoring after about 3 weeks vs untreated controls
Method in brief: as §3

[19] = system: Matricaria inodora (MATIN); assay: Post-emergence herbicidal action against MATIN
Method in brief: as §2

[20] = system: Matricaria inodora (MATIN); assay: Pre-emergence herbicidal action against MATIN
Method in brief: as §3

[21] = system: Verconica persica (VERPE); assay: Post-emergence herbicidal action against VERPE
Method in brief: as §2

[22] = system: Viola tricolor (VIOTR); assay: Pre-emergence herbicidal action against VIOTR
Method in brief: as §3

[23] = system: Setaria viridis (SETVI); assay: Pre-emergence herbicidal action against SETVI
Method in brief: as §3

[24] = system: Echinochloa crus-galli (ECHCG); assay: Pre-emergence herbicidal action against ECHCG
Method in brief: as §3

[25] = system: Pharbitis purpurea (PHBPU); assay: Post-emergence herbicidal action against PHBPU
Method in brief: as §2

[26] = system: Polygonum convolvulus (POLCO); assay: Post-emergence herbicidal action against POLCO; details: dosage 320 g/ha
Method in brief: as §2

[27] = 80 g/ha, effect in comparison to untreated controls

Post-emergence action against ZEAMX in % (crop plant compatibility) ([1]; 20 g/ha, ZEAMX, effect in comparison to untreated controls): 10%
Post-emergence action against ZEAMX in % [1]: 10%
Post-emergence action against ORYSA in % ([2]; 20 g/ha, effect vs untreated controls): 0%
Post-emergence action against ORYSA in % [2, 27]: 0%
Pre-emergence action against ORYSA in % [9]: 20%
Compound: COCCOC(=O)[C@@H](C)Oc1nn(-c2ncccc2F)c(-c2ccc(F)nc2)c1Br [Example I-35]
Post-emergence action against LOLRI in % ([3]; dosage 80 g/ha): 90%
Post-emergence action against AMARE in % ([4]; 80 g/ha, visual rating about 3 weeks after treatment vs untreated controls (100% = plants have died, 0% = like control plants)): 100%
Post-emergence action against ALOMY in % ([5]; 80 g/ha): 90%
Post-emergence action against ABUTH in % ([6]; 80 g/ha): 90%
Pre-emergence action against VERPE in % ([7]; dosage 320 g/ha): 100%
Pre-emergence action against ALOMY ([8]; 80 g/ha): 90%
Pre-emergence action against ALOMY ([8]; 320 g/ha): 100%
Post-emergence action against SETVI in % [10]: 100%
Post-emergence action against AVEFA in % ([11]; 80 g/ha): 100%
Post-emergence action against VIOTR in % ([12]; 80 g/ha): 90%
Post-emergence action against ECHCG in % ([13]; dosage 80 g/ha): 90%
Pre-emergence action against PHBPU in % [14]: 90%
Pre-emergence action against LOLRI in % ([15]; dosage 80 g/ha): 90%
Pre-emergence action against LOLRI in % ([15]; dosage 320 g/ha): 100%
Pre-emergence action against POLCO in % [16]: 90%
Pre-emergence action against AVEFA in % [17]: 100%
Pre-emergence action against AMARE in % ([18]; 80 g/ha): 100%
Pre-emergence action against AMARE in % ([18]; 320 g/ha): 100%
Post-emergence action against MATIN in % ([19]; dosage 80 g/ha): 90%
Pre-emergence action against MATIN in % ([20]; dosage 320 g/ha): 100%
Post-emergence action against VERPE in % ([21]; dosage 80 g/ha): 100%
Pre-emergence action against VIOTR in % ([22]; 320 g/ha, Viola tricolor): 100%
Pre-emergence action against VIOTR in % ([22]; dosage 80 g/ha): 100%
Pre-emergence action against SETVI in % ([23]; dosage 80 g/ha): 100%
Pre-emergence action against SETVI in % ([23]; dosage 320 g/ha): 100%
Pre-emergence action against ECHCG in % ([24]; dosage 80 g/ha): 90%
Pre-emergence action against ECHCG in % ([24]; dosage 320 g/ha): 100%

Post-emergence action against ZEAMX in % [1]: 10%
Post-emergence action against ORYSA in % [2, 27]: 20%
Pre-emergence action against ORYSA in % [9]: 20%
Compound: COC(=O)COc1nn(-c2nc(F)ccc2F)c(-c2ccc(F)nc2)c1Br [Example I-369]
Post-emergence action against LOLRI in % ([3]; dosage 80 g/ha): 80%
Post-emergence action against LOLRI in % ([3]; dosage 320 g/ha): 90%
Post-emergence action against PHBPU in % ([25]; dosage 80 g/ha): 80%
Post-emergence action against PHBPU in % ([25]; dosage 320 g/ha): 90%
Post-emergence action against AMARE in % ([4]; 320 g/ha, visual rating about 3 weeks after treatment): 80%
Post-emergence action against ALOMY in % ([5]; 80 g/ha): 80%
Post-emergence action against ALOMY in % ([5]; 320 g/ha): 100%
Post-emergence action against ABUTH in % ([6]; 320 g/ha): 80%
Pre-emergence action against VERPE in % ([7]; dosage 80 g/ha): 90%
Pre-emergence action against VERPE in % ([7]; dosage 320 g/ha): 90%
Pre-emergence action against ALOMY ([8]; 80 g/ha): 80%
Pre-emergence action against ALOMY ([8]; 320 g/ha): 100%
Post-emergence action against AVEFA in % ([11]; 320 g/ha): 80%
Post-emergence action against VIOTR in % ([12]; 80 g/ha): 80%
Post-emergence action against VIOTR in % ([12]; 320 g/ha): 80%
Post-emergence action against ECHCG in % ([13]; dosage 80 g/ha): 80%
Post-emergence action against ECHCG in % ([13]; dosage 320 g/ha): 80%
Pre-emergence action against PHBPU in % [14]: 90%
Pre-emergence action against LOLRI in % ([15]; dosage 320 g/ha): 90%
Pre-emergence action against POLCO in % [16]: 90%
Pre-emergence action against AVEFA in % [17]: 80%
Pre-emergence action against AMARE in % ([18]; 80 g/ha): 90%
Pre-emergence action against AMARE in % ([18]; 320 g/ha): 90%
Post-emergence action against MATIN in % ([19]; dosage 320 g/ha): 80%
Pre-emergence action against MATIN in % ([20]; dosage 80 g/ha): 80%
Pre-emergence action against MATIN in % ([20]; dosage 320 g/ha): 90%
Post-emergence action against POLCO in % [26]: 80%
Post-emergence action against VERPE in % ([21]; 320 g/ha, VERPE): 80%
Post-emergence action against VERPE in % ([21]; dosage 80 g/ha): 80%
Pre-emergence action against VIOTR in % ([22]; 320 g/ha, Viola tricolor): 100%
Pre-emergence action against VIOTR in % ([22]; dosage 80 g/ha): 80%
Pre-emergence action against SETVI in % ([23]; dosage 320 g/ha): 90%
Pre-emergence action against ECHCG in % ([24]; dosage 320 g/ha): 100%
